Data reported in patent US20030170893A1, “NANOCAPSULE ENCAPSULATION SYSTEM AND METHOD” (Genesegues, Inc., priority 2000, published 2003).

What was measured:
[1] = test system: squamous cell carcinoma cultures; experiment: Cell growth inhibition, MTT assay, carcinoma; assay type: cell-based, human; conditions: 18 hours treatment, 72 hours total growth time
Experimental: FIG. 6C: Carcinoma cells and HDF's were seeded overnight into 96 well plates at 2000 and 6000 cells per well respectively. Cisplatin preparations were added to wells for 18 hours as noted on the graph than washed out. After 72 hours cell viability of assessed by a commercial MTT assay (WST assay, Boehringer Mannheim). Wells were executed in duplicate.
Nanocapsules were prepared as described in Example 1 to encapsulate cisplatin, a […] molecule and a common cancer chemotherapeutic with serious side effects. A coating weight ratio of 1:100 was used and irregular nanocapsules of 29±3 nm were produced. […] Cells were seeded overnight into 96 well plates, treated for 18 hours with increasing amounts of encapsulated or unencapsulated drug, then assessed for cell growth inhibition using an MTT assay […] for total growth time of 72 hours. Results are illustrated in FIG. 6C.

[2] = test system: human dermal fibroblast (HDF) cultures; experiment: Cell growth inhibition, MTT assay, fibroblasts; assay type: cell-based; conditions: 18 hours treatment, 72 hours total growth time
Experimental: Cells were seeded overnight into 96 well plates, treated for 18 hours with increasing amounts of encapsulated or unencapsulated drug, then assessed for cell growth inhibition using an MTT assay 48 hours later for total growth time of 72 hours.

## N.N.[Cl][Pt][Cl] [unencapsulated drug, cisplatin]
[1]
  inhibition concentration (IC50): 525 µg/mL
[2]
  Cell death of nontarget cells: killed
